Test results as given in PMC4199632, “Exploring the Anti-Cancer Activity of Novel Thiosemicarbazones Generated through the Combination of Retro-Fragments: Dissection of Critical Structure-Activity Relationships” (PLoS ONE, 2014).
Like-named read-outs stand apart in the source and are kept apart here.

Tests used:
[1] = system: murine M109 lung carcinoma; set-up: method as in PMID 15150082; conditions: five day treatment, 0.4 mg/kg, mice; cited from earlier work
[2] = set-up: method as in PMID 17003122; conditions: high, non-optimal doses; cited from earlier work
[3] = system: HCT116 p53+/+, HCT116 p53−/−, Raji, HeLa, SK-N-MC and NHDF cells; test: Proliferation assay, ranges stated over several cell-types; type: cell-based, human; conditions: for IC50: Homo sapiens; for Therapeutic index, NHDF relative to HCT116 cells: range over HCT116 p53+/+ and p53−/− and over the compounds named
Protocol: The human cancer cell types (neuroepithelioma (SK-N-MC), colon cancer (HCT116 with wild-type p53 (p53^+/+)), Burkitt's lymphoma (Raji) and cervical carcinoma (HeLa)) cells and normal human dermal fibroblasts (NHDF) were obtained from the American Type Culture Collection (ATCC, Manassas, VA, USA). HCT116 null p53 (p53^−/−) cells were obtained from the Maria Sklodowska-Curie Memorial Cancer Center and Institute of Oncology, Poland.
The SK-N-MC cells were cultured in minimum essential medium (MEM; Life Technologies, Grand Island, New York, USA) containing 10% (v/v) fetal bovine serum (FBS; Life Technologies), 1 mM sodium pyruvate (Life Technologies), 1% (v/v) non-essential amino acids (Life Technologies), 2 mM L-glutamine (Life Technologies), 100 U/mL penicillin (Life Technologies), 100 µg/mL streptomycin (Life Technologies) and 0.28 µg/mL fungizone (Bristol Myers Squibb Pharmaceuticals, Montreal, Canada). The HCT116 and NHDF cells were grown in Dulbecco's modified Eagle's medium (DMEM; Sigma-Aldrich) supplemented with 12% (v/v) heat-inactivated FBS (HCT116; Life Technologies) or 15% (v/v) FBS (NHDF; Life Technologies), 100 µg/mL of gentamicin (Polfa Warszawa S.A., Warsaw, Poland), 100 µg/mL of streptomycin (Polfa) and 100 U/mL of penicillin (Polfa). The Raji and HeLa cells were cultured in Roswell Park Memorial Institute medium (RPMI-1640; Sigma-Aldrich) with the addition of 10% (v/v) heat-inactivated FBS (Life Technologies) and the supplements described for SK-N-MC cells above. All cell lines were cultured under standard conditions at 37°C in a humidified atmosphere at 5% CO2 and were subcultured every 3–4 days as required.
The cells were seeded in 96-well plates (SK-N-MC: 1.5×10^4 cells/well; HeLa: 5.0×10^3 cells/well; Raji: 3.0×10^3 cells/well; HCT116: 3.5×10^3 cells/well; NHDF: 3.0×10^3 cells/well) 24 h prior to the addition of the novel compounds. The assays were performed using a 72 h (SK-N-MC, Raji, HeLa) or 96 h (HCT 116, NHDF) incubation period with the agents at 37°C. […] Additionally, DFO and Dp44mT were included as positive controls in all experiments as their activity is well characterized, [42], [50].
Chelator stock solutions were prepared in DMSO and diluted in media so that the final [DMSO] <0.05%. The results were expressed as a percentage of the control and the resulting IC50 values were calculated using GraphPad Prism 5 (GraphPad Software, Inc., La Jolla, CA, USA). The IC50 was defined as the concentration necessary to reduce the absorbance to 50% of the untreated control. Each individual compound was tested in triplicate in a single experiment, with each experiment being repeated three times. After incubation of HCT 116 and NHDF cells with the tested compounds, 20 µL of the CellTiter 96 Aqueous One Solution - MTS (Promega, Madison, WI, USA) solution was added to each well (with 100 µL of DMEM without phenol red) and incubated for 1 h/37°C. The optical density of the samples was analyzed at 490 nm.
MTT (3-[4,5-dimethylthiazol-2-yl]-2,5-diphenyltetrazolium bromide) was used to evaluate the anti-proliferative effects of the chelators in SK-N-MC and Raji cells. Following incubation with the investigated compounds, 10 µL of MTT (5 mg/mL in PBS; Sigma-Aldrich) was added to each well. After a 2 h (SK-N-MC) or 4 h (Raji) incubation, the plates were centrifuged, and the cells were lysed with 100 µL of 10% SDS-50% isobutanol in 0.01 M HCl (SK-N-MC) or DMSO (Raji). The absorbance was measured at 570 nm. The anti-proliferative effects of these novel agents on HeLa cells were estimated using crystal violet staining (0.5% crystal violet solution for 10 min). Finally, the wells were rinsed with water and the cells were lysed with 2% SDS. The optical density of the samples was analyzed at 595 nm.

[4] = HCT-116, range over HCT116 p53+/+ and p53−/− cells and over the compounds named, read-out: IC50 range in HCT116 cells

Row | SMILES | Growth of murine M109 lung carcinoma (% of the control) [1] | Toxicity finding [2] | IC50 ([3]; range over the cancer cell-types of Table 1, read-out: IC50 range, anti-cancer activity) | IC50 [3, 4] | Therapeutic index, NHDF relative to HCT116 cells [3]
1 | CN(C)C(=S)NN=C(c1ccccn1)c1ccccn1 [Dp44mT, di-2-pyridylketone 4,4-dimethyl-3-thiosemicarbazone, reference compound] | 47% | cardiac fibrosis | 2 to 40 nM | – | –
2 | CN(C(=S)N/N=C/c1ccc2ccccc2n1)C1CCCCC1 [2f] | – | – | – | 0.8 to 90 nM | 0.4–0.8
3 | S=C(N/N=C/c1ccc2ccccc2n1)N1CCN(c2ccccc2)CC1 [2b] | – | – | – | 0.8 to 90 nM | 0.4–0.8
